# Columns and labels:
# Assay in all cases: relative viability (nuclei count vs DMSO), 5 days (fraction); higher = more cells survive
# [1] = system: NCI-H1915
# In short: (§1)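 Each reported value is a median over duplicate plates. It expresses relative viability: treated-well nuclei count divided by vehicle-well nuclei count. Lung cancer cell lines in 1536-well plates were dosed by pin tool a day after seeding, alone with one drug or with a fixed anchor-drug dose plus five library-drug doses (not always all listed) in √10 steps, and nuclei were counted after 5 days.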
# [2] = system: NCI-H838
# In short: as §1
# [3] = system: NCI-H596
# In short: as §1
# [4] = system: PC-3 [JPC-3]
# In short: as §1
# [5] = system: LCLC-97TM1
# In short: as §1
# [6] = system: NCI-H23
# In short: as §1
# [7] = system: NCI-H1666
# In short: as §1
# [8] = system: NCI-H647
# In short: as §1
# [9] = system: NCI-H1792
# In short: as §1
# [10] = system: NCI-H460
# In short: as §1
# [11] = system: NCI-H727
# In short: as §1
# [12] = system: SK-LU-1
# In short: as §1
# [13] = system: NCI-H520
# In short: as §1
# [14] = system: NCI-H322M
# In short: as §1
# [15] = system: NCI-H2342
# In short: as §1
# [16] = system: NCI-H1975
# In short: as §1
# [17] = system: NCI-H1437
# In short: as §1
# [18] = system: EKVX
# In short: as §1
# [19] = system: NCI-H522
# In short: as §1
# [20] = system: NCI-H441
# In short: as §1
# [21] = system: NCI-H1650
# In short: as §1
# [22] = system: NCI-H661
# In short: as §1
# [23] = system: NCI-H358
# In short: as §1
smiles,measurement,setting,value
CCNC(=O)c1noc(-c2cc(C(C)C)c(O)cc2O)c1-c1ccc(CN2CCOCC2)cc1 [Luminespib] + O=C(c1cc(Cc2n[nH]c(=O)c3ccccc23)ccc1F)N1CCN(C(=O)C2CC2)CC1 [Olaparib] (partner 8 µM),relative viability,[1]; first compound 0.002 µM,0.254
same,relative viability,[1]; first compound 0.006325 µM,0.269
same,relative viability,[1]; first compound 0.02 µM,0.306
same,relative viability,[1]; first compound 0.06325 µM,0.148
same,relative viability,[1]; first compound 0.2 µM,0.124
same,relative viability,[2]; first compound 0.002 µM,0.772
same,relative viability,[2]; first compound 0.006325 µM,0.782
same,relative viability,[2]; first compound 0.02 µM,0.723
same,relative viability,[2]; first compound 0.06325 µM,0.122
same,relative viability,[2]; first compound 0.2 µM,0.129
same,relative viability,[3]; first compound 0.002 µM,0.752
same,relative viability,[3]; first compound 0.006325 µM,0.695
same,relative viability,[3]; first compound 0.02 µM,0.749
same,relative viability,[3]; first compound 0.06325 µM,0.617
same,relative viability,[3]; first compound 0.2 µM,0.602
same,relative viability,[4]; first compound 0.002 µM,1.09
same,relative viability,[4]; first compound 0.006325 µM,1.04
same,relative viability,[4]; first compound 0.02 µM,0.863
same,relative viability,[4]; first compound 0.06325 µM,0.392
same,relative viability,[4]; first compound 0.2 µM,0.398
same,relative viability,[5]; first compound 0.002 µM,0.421
same,relative viability,[5]; first compound 0.006325 µM,0.5
same,relative viability,[5]; first compound 0.06325 µM,0.401
same,relative viability,[5]; first compound 0.2 µM,0.257
same,relative viability,[6]; first compound 0.002 µM,0.36
same,relative viability,[6]; first compound 0.006325 µM,0.333
same,relative viability,[6]; first compound 0.02 µM,0.346
same,relative viability,[6]; first compound 0.06325 µM,0.102
same,relative viability,[6]; first compound 0.2 µM,0.121
same,relative viability,[7]; first compound 0.002 µM,0.778
same,relative viability,[7]; first compound 0.006325 µM,0.733
same,relative viability,[7]; first compound 0.02 µM,0.753
same,relative viability,[7]; first compound 0.06325 µM,0.75
same,relative viability,[7]; first compound 0.2 µM,0.716
same,relative viability,[8]; first compound 0.002 µM,0.536
same,relative viability,[8]; first compound 0.006325 µM,0.577
same,relative viability,[8]; first compound 0.02 µM,0.273
same,relative viability,[8]; first compound 0.06325 µM,0.0706
same,relative viability,[8]; first compound 0.2 µM,0.059
same,relative viability,[9]; first compound 0.002 µM,0.4
same,relative viability,[9]; first compound 0.006325 µM,0.298
same,relative viability,[9]; first compound 0.02 µM,0.271
same,relative viability,[9]; first compound 0.06325 µM,0.0723
same,relative viability,[9]; first compound 0.2 µM,0.0503
same,relative viability,[10]; first compound 0.002 µM,0.514
same,relative viability,[10]; first compound 0.006325 µM,0.37
same,relative viability,[10]; first compound 0.02 µM,0.454
same,relative viability,[10]; first compound 0.06325 µM,0.0514
same,relative viability,[10]; first compound 0.2 µM,0.0343
same,relative viability,[11]; first compound 0.002 µM,0.674
same,relative viability,[11]; first compound 0.006325 µM,0.767
same,relative viability,[11]; first compound 0.02 µM,0.695
same,relative viability,[11]; first compound 0.06325 µM,0.403
same,relative viability,[11]; first compound 0.2 µM,0.271
same,relative viability,[12]; first compound 0.002 µM,0.538
same,relative viability,[12]; first compound 0.006325 µM,0.4
same,relative viability,[12]; first compound 0.02 µM,0.475
same,relative viability,[12]; first compound 0.06325 µM,0.187
same,relative viability,[12]; first compound 0.2 µM,0.179
same,relative viability,[13]; first compound 0.002 µM,0.361
same,relative viability,[13]; first compound 0.006325 µM,0.302
same,relative viability,[13]; first compound 0.02 µM,0.227
same,relative viability,[13]; first compound 0.06325 µM,0.139
same,relative viability,[13]; first compound 0.2 µM,0.112
same,relative viability,[14]; first compound 0.002 µM,0.799
same,relative viability,[14]; first compound 0.006325 µM,0.738
same,relative viability,[14]; first compound 0.02 µM,0.729
same,relative viability,[14]; first compound 0.06325 µM,0.344
same,relative viability,[14]; first compound 0.2 µM,0.439
same,relative viability,[15]; first compound 0.002 µM,0.411
same,relative viability,[15]; first compound 0.006325 µM,0.512
same,relative viability,[15]; first compound 0.02 µM,0.324
same,relative viability,[15]; first compound 0.06325 µM,0.348
same,relative viability,[15]; first compound 0.2 µM,0.238
same,relative viability,[16]; first compound 0.002 µM,0.875
same,relative viability,[16]; first compound 0.006325 µM,0.802
same,relative viability,[16]; first compound 0.02 µM,0.919
same,relative viability,[16]; first compound 0.06325 µM,0.128
same,relative viability,[16]; first compound 0.2 µM,0.156
same,relative viability,[17]; first compound 0.002 µM,0.806
same,relative viability,[17]; first compound 0.006325 µM,0.63
same,relative viability,[17]; first compound 0.02 µM,0.684
same,relative viability,[17]; first compound 0.06325 µM,0.259
same,relative viability,[17]; first compound 0.2 µM,0.211
same,relative viability,[18]; first compound 0.002 µM,0.881
same,relative viability,[18]; first compound 0.006325 µM,0.881
same,relative viability,[18]; first compound 0.02 µM,0.651
same,relative viability,[18]; first compound 0.06325 µM,0.541
same,relative viability,[18]; first compound 0.2 µM,0.155
same,relative viability,[19]; first compound 0.002 µM,0.757
same,relative viability,[19]; first compound 0.006325 µM,0.61
same,relative viability,[19]; first compound 0.02 µM,0.624
same,relative viability,[19]; first compound 0.06325 µM,0.437
same,relative viability,[19]; first compound 0.2 µM,0.4
same,relative viability,[20]; first compound 0.002 µM,0.524
same,relative viability,[20]; first compound 0.006325 µM,0.569
same,relative viability,[20]; first compound 0.02 µM,0.714
same,relative viability,[20]; first compound 0.06325 µM,0.119
same,relative viability,[20]; first compound 0.2 µM,0.117
same,relative viability,[21]; first compound 0.002 µM,0.852
same,relative viability,[21]; first compound 0.006325 µM,0.786
same,relative viability,[21]; first compound 0.02 µM,0.686
same,relative viability,[21]; first compound 0.06325 µM,0.142
same,relative viability,[21]; first compound 0.2 µM,0.137
same,relative viability,[22]; first compound 0.002 µM,0.754
same,relative viability,[22]; first compound 0.006325 µM,0.804
same,relative viability,[22]; first compound 0.02 µM,0.807
same,relative viability,[22]; first compound 0.06325 µM,0.414
same,relative viability,[22]; first compound 0.2 µM,0.3
same,relative viability,[23]; first compound 0.002 µM,0.637
same,relative viability,[23]; first compound 0.006325 µM,0.655
same,relative viability,[23]; first compound 0.02 µM,0.577
same,relative viability,[23]; first compound 0.06325 µM,0.0817
same,relative viability,[23]; first compound 0.2 µM,0.0712

# — the supplement of paper PMC10307832
